Experimental findings from patent publication US8278072B1, “Method for synthesis of sialylated products using reversible sialylation” (Health Research, Inc., priority 2007, dated 2012) are described below.

What all share (assay type): biochemical
Assay [1] deals with T1, ST3Gal-II (Rattus norvegicus, UniProt Q11205).
T1 construct: purchased Calbiochem
T1 sequence (Q11205 1-350): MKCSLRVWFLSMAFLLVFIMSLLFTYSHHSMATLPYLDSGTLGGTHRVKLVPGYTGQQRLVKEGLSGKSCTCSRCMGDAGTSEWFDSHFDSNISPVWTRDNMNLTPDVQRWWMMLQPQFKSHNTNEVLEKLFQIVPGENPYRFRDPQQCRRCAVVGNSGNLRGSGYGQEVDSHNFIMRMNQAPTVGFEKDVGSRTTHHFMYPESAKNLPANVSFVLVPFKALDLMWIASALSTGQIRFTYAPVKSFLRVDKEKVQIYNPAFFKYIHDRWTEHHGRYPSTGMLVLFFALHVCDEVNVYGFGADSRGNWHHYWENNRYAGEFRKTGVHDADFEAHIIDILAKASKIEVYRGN
Put plainly: Reverse sialylation: transfer of [9-3H]NeuAc from sialylated donor to nucleotide phosphates (WGA-agarose). The conditions noted are these: nucleotide phosphate 1 mM as acceptor, donor [1]. How it is done: FIG. 1. Nucleotide phosphates as acceptors of radioactivity from [9-^3H]NeuAcα2,3Galβ,13 (GlcNAcβ1,6)GalNAcα-O—Al (Al=Allyl) [[9-^3H] [1]] in the presence of ST3Gal-II (scheme-I). Reaction mixtures (RM) with the following composition were incubated at 37° C. for 21 hours in 100 mM NaCa Codylate buffer, pH6.0: i) RM containing 150 μM (0.4 μCi) [[9-^3H] [1]] (donor) along with 0.8 mU ST3Gal-II but no 5″-CMP; and, ii) RM containing [[9-^3H] [1]] and 1.0 mM 5′-CMP, along with ST3Gal-II. Products formed were fractionated on a WGA-agarose column. […] The feasibility of the reverse reaction is well established in literature. Schematic symbols: ♦:sialic acid, ●:Gal, □:GalNAc, ▪:GlcNAc.
All enzymatic sialylation reactions were typically carried out in 100 mM NaCa Codylate buffer pH6.0 in the presence of enzyme, synthetic acceptor (at 7.5 mM or as indicated in each experiment) and 0.2 μCi CMP-[9-^3H]NeuAc (NEN-Dupont, 29 mCi/μmol). The concentration of total CMP-NeuAc was adjusted in individual reactions by supplementing with additional cold CMP-NeuAc. Reaction volume was 20 μl. Products formed were separated using four different chromatography procedures (below). In all cases, the radioactive content of isolated products was determined by using 3a70 scintillation cocktail (Research Products International, Mount Prospect, Ill.), and a Beckman LS6500 scintillation counter.
(§1) a) Biogel P2 chromatography: A Biogel P2 column (Fine Mesh; 1.0×116.0 cm) was used with 0.1 M pyridine acetate (pH5.4) as the eluent at room temperature. […] Fractions of 1.0 ml were collected. The bound material was then eluted with 0.5M GlcNAc or 0.2M Gal in the same buffer. […] Calculation of equilibrium constant, Keq: Equilibrium constant was calculated for selected reversible bimolecular reactions that are denoted by:
Cloned and purified rat sialyltransferase α2,3(O)ST (ST3Gal-II) is used in many experiments presented in this manuscript. […] In order to determine if the sialylation reaction is reversible (FIG. 1), [9-^3H]NeuAcα2,3Galβ,13(GlcNAcβ1,6)GalNAcα-O—Al (Al=Allyl) [9-^3H[1]] was prepared using ST3Gal-II in the presence of CMP-[9-^3H]NeuAc and the trisaccharide acceptor Galβ1,3(GlcNAcβ1,6)GalNAcα-O—Al, and the radiolabeled product was isolated using Biogel P2 chromatography. […] Two different reaction mixtures were then prepared with: i) [9-^3H[1]] and ST3Gal-II but without 5″-CMP; and ii) [9-^3H[1]] and 5″-CMP along with ST3Gal-II.

Assay [2] concerns the target T1, ST3Gal-II. Put plainly: Reverse sialylation by ST3Gal-II in presence of citrate or 5′-nucleotides. The following applies: 0.2 mM [3], 7 mM 5′-CMP, 3.0 mM [5], 4 hours. How it is done: FIG. 5. Effect of 5′-nucleotides on direct sialyltransferase activity (panel a) and reverse sialylation (panel b). a. Varying concentrations of 5′-CDP or 5′-CMP were added to 100 mM acceptor (specified below), 0.15 mM CMP-[9-^3H]NeuAc and either ST3Gal-II (0.2 mU), ST3Gal-III (0.5 mU) or ST6Gal-I (0.2 mU) for 4 h at 37° C. Products were separated using Sep-Pak C18 method. ST3Gal-III activity was measured using acceptor 4-O-MeGalβ1,4GlcNAcβ-O-Bn in the presence of 5′-CDP (●) and 5′-CMP (◯). ST6Gal-I activity was measured using Gal β1,4GlcNAcβ-O-Bn in the presence of 5′-CDP (▴) and 5′-CMP (Δ). ST3Gal-II using D-Fucβ1,3GalNAcα-O-Bn in the presence of 5′-CDP (▪) and 5′-CMP (□). b) Reverse sialylation by ST3Gal-II was measured in reaction mixtures containing 0.2 mM [9-^3H] [3], 7 mM 5′-CMP, ST3Gal-II (2 mU), D-Fucβ1,3GalNAcα-OBn (3.0 mM) and varying doses of either 5′-CDP (▴), 5′-UMP (◯) or 2-deoxy 5′-CMP (●) for 4 hours at 37° C. Reaction product ([9-^3H]NeuAcα2,3DFucβ1,3 GalNAcα-O-Bn) was isolated using Sep-Pak C18 method. In some runs, where was absent, the amount of CMP-NeuAc produced was quantified using the Dowex-1 Formate method in the presence of varying doses of 5′-CDP (▪).
Besides pH other distinctions were also observed between forward and reverse sialylation. In this regard, citrate ions tended to inhibit forward sialylation but not reverse sialylation activity (Table V). For these studies, the effect of citrate on the forward sialylation activity of ST3Gal-I, ST3Gal-II, ST3Gal-III and ST6Gal-I was examined. Reverse sialylation activity of ST3Gal-II was also measured in terms of: i) the formation of CMP-NeuAc from 5′-CMP; and ii) the transfer of NeuAc from this newly synthesized CMP-NeuAc to another O-glycan. From the data (Table V), it is evident that citrate inhibits the direct sialylation activity of all the enzymes mentioned above. However, both the synthesis of CMP-[9-^3H]NeuAc from 5′-CMP as well as the synthesis of [9-^3H]NeuAcα2,3D-Fucβ1,3 GalNAcα-O-Bn using the newly formed CMP-[9-^3H]NeuAc through reverse sialylation of ST3Gal-II was not inhibited by citrate.
The effect of 5′-nucleotides on forward sialylation (FIG. 5a) and reverse sialylation (FIG. 5b) were examined. […] The overall formation of [9-^3H]NeuAcα2,3D-Fucβ1,3 GalNAcα-O-Bn by the two-step reverse sialylation process, however, was inhibited by 5′-CDP and this is consistent with the finding that 5′-CDP inhibits forward sialylation in the second step.

The target of assay [3] is T1, ST3Gal-II. The assay can be described thus: Reverse sialylation equilibrium constant (Keq) and 5′-CMP dose dependence. The following applies: acceptor 5′-CMP. How it is done: FIG. 2. Equilibrium constant. a. Reversible sialyltransferase activity at increasing concentration of 5′-CMP. 0.15 mM of donor [9-^3H]NeuAcα2,3Galβ1,3(4-FGlcNAcβ1,6)GalNAcα-O-Bn [9-^3H[2]] was incubated with varying concentrations of 5′-CMP and 0.15 mU ST3Gal-II under conditions described in FIG. 1 for 2 hours. The consumption of the [9-^3H]NeuAc benzyl glycoside donor was measured by subjecting the incubation mixture to Sep-Pak C18 fractionation, which binds the donor and not CMP-[9-^3H]NeuAc. The reaction proceeded to ½ the maximum extent at 80 μM 5′-CMP. b. Equilibrium constant Keq (=0.35) calculated for data in panel a. c. Varying concentrations of 5′-CMP was sialylated with ST3Gal-II (2.0 mU) using either 0.15 mM (panel c) or 1.5 mM (not shown) sialyl donor [9-^3H]NeuAcα2,3Galβ1,3GalNAcβ1,3Galα-O-Me [9-^3H[3]] for 4 hours. The product CMP-[9-^3H]NeuAc and the unused [9-^3H[3]] were separated and quantitated by Dowex-1-Formate method. d. Equilibrium constant, Keq=98.9. Diamonds denote data from 1.5 mM runs while data from 0.15 mM runs are depicted by squares.
as §1
[formula] Here, [9-^3H]D* denotes the radiolabeled donor and D′ is the donor after removal of sialic acid. Similarly, A and [9-^3H]A* denote the acceptor before and after incorporation of NeuAc. In each run, unreacted [9-^3H]D* and product [9-^3H] A* are measured using radioactivity measurements. The equilibrium constant (Keq=kreverse/kforward, dimensionless units) are then determined using the following equation, where terms in square brackets denote concentrations:
[formula] [D0] and [A0] are initial donor and acceptor concentrations. A plot of [D*]/([D0]−[D*]) versus [A*]/([A0]−[A*]) yields Keq from slope data. Keq<1 implies that the forward reaction is favored and the reaction proceeds to the right side to form [9-^3H]A* efficiently. Liquid Chromatography Coupled with Tandem Mass Spectrometry (LC/MS/MS)
Similar results were observed upon increasing concentrations of 5′-CMP when [9-^3H]NeuAcα2,3Galβ1,3(4-FGlcNAcβ1,6) GalNAcα-O-Bn [9-^3H[2]] was donor (FIG. 2a, b). The concentration of 5′-CMP that mediated half-maximal transfer of [9-^3H]NeuAc was 80 μM. The bimolecular equilibrium constant (Keq) for this reaction was 0.35 (dimensionless units, Table I). Indeed, the Keq varied depending on the donor and it was 98.9 when the donor was based on the globo glycolipid, [9-^3H]NeuAcα2,3Galβ1,3GalNAcβ1,3 Gala-O-Me [[9-^3H] [3]] (FIG. 2c, d). Upon comparing and [3], it is apparent that reverse sialylation proceeds more effectively in the case of [2]. To further confirm the above estimates of Keq for core-2 based structures, we also calculated this parameter for our previously published data where [9-^3H]CMP-NeuAc was donor and mucin core-2 tetrasaccharide Galβ1,4GlcNAcβ1,6(Galβ1,3)GalNAcα-O-Bn was acceptor. In this case, Keq measured with respect to the rate of mucin core-2 sialylation was 5.55 (data not shown), which translates to a reverse sialylation Keq of 0.18.

Consider `O=c1ccn([C@@H]2O[C@H](COP(=O)(O)O)[C@@H](O)[C@H]2O)c(=O)[nH]1` [5′-UMP], for which, in assay [1], the “Incorporation of [9-3H]NeuAc expressed as percent of the CPM incorporated into 5′-CMP” value was found to be 55.9%. Also, in assay [2], the “Effect on overall formation of [9-3H]NeuAcα2,3D-Fucβ1,3GalNAcα-O-Bn by two-step reverse sialylation” value was “did not alter the extent of product formation”.

As for `Nc1ccn([C@H]2C[C@H](O)[C@@H](COP(=O)(O)O)O2)c(=O)n1` [2′ deoxy 5′-CMP], the “Incorporation of [9-3H]NeuAc expressed as percent of the CPM incorporated into 5′-CMP” value in assay [1] is 26.3%. Besides, in assay [2], the “Effect on overall formation of [9-3H]NeuAcα2,3D-Fucβ1,3GalNAcα-O-Bn by two-step reverse sialylation” value is reported as “did not alter the extent of product formation”.

For the compound “[9-^3H]NeuAcα2,3Gal(1,3(Gal(1,4GlcNAc(1,6)GalNAc(-O-Bn”, in assay [3] (translated from Keq 5.55 of mucin core-2 sialylation, previously published data), the “Keq (dimensionless units), reverse sialylation equilibrium constant” value is given as 0.18.

As to “[9-^3H]NeuAcα2,3Galβ1,3GalNAcβ1,3Galα-O-Me [[3]]”, in assay [3] (sialylated donor), the “Keq (dimensionless units), reverse sialylation equilibrium constant” value stood at 98.9.
